This note sets out measurements from ChEMBL document CHEMBL1144319, “Design, synthesis, and evaluation of oxazole transthyretin amyloidogenesis inhibitors” (Bioorg Med Chem Lett, 2005).

The target in this assay is Transthyretin (Homo sapiens) (UniProt P02766). The experiment in a line: Binding selectivity to transthyretin in human blood plasma after 24 hincubation with 10.8 uM inhibitor. The assay is classed as cell-free.

On to `CCc1oc(-c2cc(Cl)cc(Cl)c2)nc1C(=O)O`, for which the Molar equivalence bound is 0.49.

As for `O=C(O)c1nc(-c2cc(Cl)cc(Cl)c2)oc1C(F)(F)F`, the Molar equivalence bound was found to be 0.68.
